# Measurements: patent US7371834B2, “Apoptosis-inducing factor” (Amgen Inc., priority 1998, dated 2008)
# Peptide text beside a SMILES is read from it. * marks the point of attachment. Cbz = O=C(OCc1ccccc1)*; CH2F = FC*
# Assays:
# [1] = system: HeLa nuclei; test: Pulse field gel electrophoresis of DNA from AIF-treated HeLa nuclei; format: biochemical; conditions: 90 min with 100 ng AIF; 200 μM p-chloromercuryphenylsulfonic acid, 200 μM Z-VAD.fmk, 5 mM EDTA
# Method: In addition, each nuclear preparation was assessed for the frequency of hypoploid nuclei as in A.
# (§1) 2B4.11 T cell hybridoma cells stably transfected with a SFFV.neo vector containing the human bcl-2 gene or the neomycin resistance gene (Neo) only [Susin et al., J. Exp. Med. 184:1331-1342 (1996)] were subjected to mechanical lysis and differential centrifugation for the subsequent recovery of nuclei, mitochondria, and organelle-free cytosols [Liu et al. Cell 86:147-157 (1996)]. Submitochondrial fractionation of mouse liver mitochondria was controlled by the determination of suitable marker enzymes [Susin et al., J. Exp. Med. 186:25-37 (1997); Pedersen et al., Meth. Cell Biol. 20:411-481 (1978)]. Purified HeLa cell nuclei were exposed to different preparations of AIF, and nuclear apoptosis was quantitated by staining with DNA-intercalating propidium iodide and cytofluorometric determination of DNA content [Susin et al., J. Exp. Med. 186:25-37 (1997)]. Alternatively, nuclei were stained with Hoechst 33342 dye or subjected to DNA extraction and pulse field gel electrophoresis. […] The release of cytochrome c and caspase-9 into the supernatant was measured by immunoblot using a monoclonal anti-cytochrome c antibody (7H8.2C12, Pharmingen), or a rabbit antibody directed against the large subunit of caspase-9 (Hazelton Research Products Inc., Denver, Pa.).
# [2] = system: Rat-1 cells; test: Microinjection into the cytoplasm of Rat-1 cells, quantitation of apoptosis; format: cell-based; conditions: 100 μM Z-VAD.fmk
# Method: FIGS. 4A-4D show the effects of AIF on intact cells. […] Buffer only or recombinant AIF (10 μM) were injected into the cytoplasm of Rat-1 cells, which were cultured for 90 min in the absence or presence of 100 μM Z-VAD.fmk (added 15 min before injection). Microinjected cells could be identified because the injectate contained FITC-dextran (green fluorescence not shown). Representative (three independent experiments, 100-200 microinjected cells per session) microphotographs of viable cells stained with the DYm-sensitive dye CMXRos and Hoechst 33342 (as in FIG. 2E., upper panels) or Annexin-V, which labels surface-exposed phosphatidylserine residues (red fluorescence in lower panels).
# (§2) Rat-1 fibroblast cells were microinjected (pressure 150 hPa; 0.2 sec; Marzo et al., Science 281:2027-2031 (1998)) with buffer only, atractyloside (50 μM), dialyzed antisera, AIF-derived peptides (100 μM), horse cytochrome c (Sigma), or the indicated dose of recombinant mAIF. The caspase inhibitor Z-VAD.fmk (100 μM; Bachem, Basel Switzerland) was added to the culture medium 30 min before microinjection into the cytoplasm (pressure 150 hPa; 0.2 sec). […] Microinjected viable cells (100-200 per session, two to three independent sessions of injection) were identified by inclusion of 0.25% (w:v) FITC-dextran (green fluorescence) in the injectate. Only the blue or red fluorescence was recorded. […]
# [3] = system: caspase; test: Cleavage of caspase substrate by mitochondrial supernatants; format: biochemical
# Method: The same mitochondrial supernatants as in FIG. 3F were tested for their capacity to cleave the caspase substrate Z-VAD.afc, leading to the generation of the fluorochrome afc. The 100% value refers to the enzymatic activity obtained by osmotic lysis of mitochondria
# [4] = system: isolated mitochondria; test: Release of cytochrome c and caspase-9 from isolated mitochondria (immunoblot of supernatants); format: biochemical, rat; conditions: rec. AIF+cytosol+Z-VAD.fmk
# Method: Isolated mitochondria were subjected to osmotic lysis (1) or treated as in A (15 min) with buffer only (2), rec. AIF (3), cytosol (4), rec. AIF+cytosol (5), or rec. AIF+cytosol+Z-VAD.fmk (6) and their supernatants were subjected to immunoblot analysis of cytochrome c and caspase-9.
# as §1, with “Cell Biol. 20:411-481 (1978)].” left out, “(1997)].” for “(1997)]. Alternatively, nuclei were stained with Hoechst 33342 dye or subjected to DNA extraction and pulse field gel electrophoresis.”
# [5] = system: purified rat liver mitochondria; test: Large amplitude swelling of purified mitochondria; format: biochemical; conditions: Z-VAD.fmk 100-200 μM
# Method: Purified rat liver mitochondria were monitored continuously for large amplitude swelling. Arrows indicate the addition of Ca^2+(200 μM; positive control), AIF (100 ng/ml), cytosol (100 μg protein per ml), and/or Z-VAD.fmk (100 μM, pre-added to the cytosol/AIF mixture). Note that only the combined addition of AIF plus cytosol (right panel) causes mitochondrial swelling.
# as §1, with “Submitochondrial fractionation of mouse liver mitochondria was controlled by the determination of suitable marker enzymes [Susin et al., J. Exp. Med. 186:25-37 (1997); Pedersen et al., Meth. Cell Biol. 20:411-481 (1978)].” left out, “(1997)].” for “(1997)]. Alternatively, nuclei were stained with Hoechst 33342 dye or subjected to DNA extraction and pulse field gel electrophoresis.”
# [6] = system: mouse liver mitochondria; test: AIF liberation from mitochondria by PT pore opening (Western blot of supernatants); format: biochemical; conditions: 5 mM atractyloside, 200 μM Ca2+
# Method: FIGS. 2A-2F show the submitochondrial and subcellular distribution of AIF in normal and apoptotic cells. […] Western blots were performed on total mouse liver mitochondrion lysate (1), proteins from the matrix (2), inner membrane (3), intermembrane space (4), outer membrane (5), the supernatant of untreated mitochondria (6), or that of mitochondria treated with 5 mM atractyloside (7), 200 μM Ca^2+ (8), 1 μM cyclosporin A (9), atractyloside+CsA (10), or Ca^2++cyclosporin A (11). In addition, the supernatant of atractyloside-treated mitochondria was sham-immunodepleted using a pre-immune serum (12), or AIF-immunodepleted in the absence (13) or presence (14) of AIF-derived immunogenic peptides (see Example 2, below) capable of blocking the AIF antiserum. Aliquots of each preparation were tested for their capacity to induce nuclear hypoploidy in isolated HeLa nuclei.
# [7] = system: Rat-1 cells; test: Microinjection of anti-AIF antiserum into Rat-1 cells treated with atractyloside or staurosporin; format: cell-based; conditions: for retention of DYm-sensitive dye CMXRos by cells: atractyloside 50 μM injected, staurosporin 1 μM, 120 min
# Method: Rat-1 cells were microinjected with atractyloside (ATR, 50 μM) alone, or atractyloside diluted in control serum, anti-AIF antiserum, and/or 100 μM AIF-derived immunogenic peptides. 180 min after microinjection, cells were stained with Hoechst 33342 and CMXRos (as in FIG. 4A, upper panel). Alternatively, cells were cultured for 120 min with staurosporin (1 μM, as in FIGS. 2C-2E), added to the culture medium after microinjection of control antiserum or anti-AIF.
# Rat-1 fibroblast cells were microinjected (pressure 150 hPa; 0.2 sec; Marzo et al., Science 281:2027-2031 (1998)) with buffer only, atractyloside (50 μM), dialyzed antisera, AIF-derived peptides (100 μM), horse cytochrome c (Sigma), or the indicated dose of recombinant mAIF. The caspase inhibitor Z-VAD.fmk (100 μM; Bachem, Basel Switzerland) was added to the culture medium 30 min before microinjection into the cytoplasm (pressure 150 hPa; 0.2 sec). […] Microinjected viable cells (100-200 per session, two to three independent sessions of injection) were identified by inclusion of 0.25% (w:v) FITC-dextran (green fluorescence) in the injectate. Only the blue or red fluorescence was recorded. Transfection of Jurkat T lymphoma cells was performed using AIF cloned in pcDNA3.1 (Invitrogen) vector and Lipofectamine® (Gibco Life Technologies). Cytofluorometric analyses of apoptosis-associated parameters were performed as described [Kroemer et al., “Detection of apoptosis and apoptosis associated alterations,” “The Immunology Methods Manual” (Lefkovitz, R. Ed.); Academic Press, Chapter 14.2., pp. 1111-1125 (1997)].
# [8] = system: Rat-1 fibroblasts; test: Nuclear phenotype of staurosporine-treated Rat-1 fibroblasts; format: cell-based; conditions: Neo cells; staurosporine 1 μM, 2 h
# Source text: In Neo cells, staurosporine treatment leads to the generation of two phenotypes, one with partial chromatin condensation (˜80% of cells, stage I), and another with more advanced chromatin condensation and nuclear fragmentation (˜20% of cells, stage II), as identified by phase contrast microscopy or counter-staining with Hoechst 33342 (not shown). Arrow heads are placed in the center of the nucleus.
# Specifically, Rabbit antiserum was generated against a mixture of 3 peptides derived from the mAIF amino acid sequence (amino acid nos. 151-170, 166-185, 181-200, coupled to KLH). This antiserum (ELISA titer ˜10.000) was used in immunoblots (1/2000) and on paraformaldehyde/picrylic acid-fixed [Bossy-Wetzel et al., EMBO J. 17:37-49 (1998)] […] Cytochrome c was detected by immunofluorescence (mAb 6H2.B4 from Pharmingen) in fixed Rat-1 cells transfected with a control vector (Neo) or with human Bcl-2 [Zhu et al., EMBO J. 15:4130-4141 (1996)] as described [Bossy-Wetzel et al., EMBO J. 17, 37-49 (1998)], whereas the DYm sensitive dye CMXRos (100 nM, red fluorescence) was used on live cells [Marzo et al., Science 281, 2027-2031 (1998)]. Cells were counterstained with the Hoechst 33342 dye (1 μM, blue fluorescence). […]
# [9] = system: Jurkat cells; test: Transfection-enforced AIF overexpression in Jurkat cells; format: cell-based; conditions: 24 hours after transfection
# Method: Jurkat cells were transiently transfected with pcDNA3.1 vector only (control) or mouse AIF cDNA (under the control of a cytomegalovirus promoter, see pcDNA3.1 vector from Invitrogen). After 24 hours of culture, cells were stained with the indicated fluorochromes to determine the frequency of apoptosis-associated alterations: loss of DYm (fluorochrome: DiOC(6)3), phosphatidylserine exposure (fluorochrome: Annexin V-FITC), or loss of nuclear DNA (fluorochrome: propidium iodide, PI, after ethanol permeabilization). Numbers refer to the percentage of cells bearing apoptotic characteristics. Results are representative of 3 different experiments.
# as §2
molecule,measurement,setting,value
O=C(O)CN(CCN(CC(=O)O)CC(=O)O)CC(=O)O [EDTA],inhibition of AIF-induced large-scale DNA fragmentation,[1],inhibited
COC(=O)C[C@H](NC(=O)[C@H](C)NC(=O)[C@@H](NC(=O)OCc1ccccc1)C(C)C)C(=O)CF [Z-VAD.fmk] (Cbz-Val-Ala-Asp(OMe)-CH2F),inhibition of effects mediated by microinjected AIF,[2],None of the effects mediated by microinjected AIF is inhibited
same,prevention of cytochrome c-induced apoptosis,[2]; microinjected cytochrome c,"succeeds in preventing cytochrome c-induced, caspase-dependent apoptosis"
same,inhibition of caspase-substrate-cleaving activity in supernatant of mitochondria treated with AIF plus cytosol,[3],Z-VAD.fmk-inhibitable
same,inhibition of AIF-induced release of caspase-9,[4],does not inhibit the release of caspase-9 but rather interferes with its proteolytic activation
same,prevention of AIF effects on isolated nuclei or on mitochondria,[5],"None of these AIF effects, either on isolated nuclei or on mitochondria, is prevented"
C=C1[C@@H]2CC[C@H]3[C@]4(C)C[C@H](O[C@@H]5O[C@H](CO)[C@@H](OS(=O)(=O)O)[C@H](OS(=O)(=O)O)[C@H]5OC(=O)CC(C)C)C[C@@H](C(=O)O)[C@H]4CC[C@]3(C2)[C@H]1O [atractyloside],release of 57 kDa AIF protein from mitochondria,[6],released upon PT pore opening
same,retention of DYm-sensitive dye CMXRos by cells,[7],do not retain the DYm-sensitive dye CMXRos
[Ca+2] [calcium],release of 57 kDa AIF protein from mitochondria,[6],released upon PT pore opening
O=S(=O)(O)c1cc[c]([Hg][Cl])cc1 [p-chloromercuryphenylsulfonic acid],inhibition of AIF-induced large-scale DNA fragmentation,[1],inhibited
CN[C@@H]1C[C@H]2O[C@@](C)([C@@H]1OC)n1c3ccccc3c3c4c(c5c6ccccc6n2c5c31)C(=O)NC4 [staurosporine],retention of DYm-sensitive dye CMXRos by cells,[7],do not retain the DYm-sensitive dye CMXRos
same,cells with more advanced chromatin condensation and nuclear fragmentation (stage II),[8],~20 % of cells
same,cells with partial chromatin condensation (stage I),[8],~80 % of cells
CC(C)(C)OO [tert-butylhydroperoxide],release of 57 kDa AIF protein from mitochondria,[6],released upon PT pore opening
"immunogenic peptides: 3 peptides derived from the mAIF amino acid sequence (amino acid nos. 151-170, 166-185, 181-200) (peptide 1 LLIGGGTAAFAAARSIRARD; peptide 2 IRARDPGARVLIVSEDPELP; peptide 3 DPELPYMRPPLSKELWFSDD)",inhibitory effect of AIF-specific antibody when co-injected with excess immunogenic peptides,[7]; 100 μM AIF-derived immunogenic peptides,No such inhibitory effect is observed
"wild type AIF: AIF overexpressed in Jurkat cells by transient transfection of mouse AIF cDNA in pcDNA3.1 (protein, UniProt Q9Z0X1 1-612, looked up, full-length) MFRCGGLAGAFKQKLVPLVRTVYVQRPKQRNRLPGNLFQQWRVPLELQMARQMASSGSSGGKMDNSVLVLIVGLSTIGAGAYAYKTIKEDQKRYNERVMGLGLSPEEKQRRAIASATEGGSVPQIRAPSHVPFLLIGGGTAAFAAARSIRARDPGARVLIVSEDPELPYMRPPLSKELWFSDDPNVTKTLQFRQWNGKERSIYFQPPSFYVSAQDLPNIENGGVAVLTGKKVVHLDVRGNMVKLNDGSQITFEKCLIATGGTPRSLSAIDRAGAEVKSRTTLFRKIGDFRALEKISREVKSITVIGGGFLGSELACALGRKSQASGIEVIQLFPEKGNMGKILPQYLSNWTMEKVKREGVKVMPNAIVQSVGVSGGRLLIKLKDGRKVETDHIVTAVGLEPNVELAKTGGLEIDSDFGGFRVNAELQARSNIWVAGDAACFYDIKLGRRRVEHHDHAVVSGRLAGENMTGAAKPYWHQSMFWSDLGPDVGYEAIGLVDSSLPTVGVFAKATAQDNPKSATEQSGTGIRSESETESEASEITIPPSAPAVPQVPVEGEDYGKGVIFYLRDKVVVGIVLWNVFNRMPIARKIIKDGEQHEDLNEVAKLFNIHED",apoptosis-associated alterations after AIF overexpression,[9],"induces DYm collapse, phosphatidylserine exposure, and hypoploidy"
